The target in this experiment is T1, CteC36–276 (Chromobacterium violaceum, UniProt Q7NY09).
T1 construct: gene cteC; residues 36-276 (disordered N-terminal 1-35 removed); SeMet form for the crystal
Description: isothermal titration calorimetry. In kind it is binding. (In ITC the heat of successive injections is recorded.)

T1 sequence (Q7NY09 36-276): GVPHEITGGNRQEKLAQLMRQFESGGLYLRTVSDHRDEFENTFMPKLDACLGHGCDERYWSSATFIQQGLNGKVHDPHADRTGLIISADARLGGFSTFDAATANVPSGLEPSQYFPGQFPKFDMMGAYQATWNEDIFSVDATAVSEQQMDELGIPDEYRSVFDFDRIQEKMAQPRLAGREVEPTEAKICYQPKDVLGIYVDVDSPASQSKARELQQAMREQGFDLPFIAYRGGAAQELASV

A word on the Kd: it is the equilibrium constant for the complex coming apart. A lower Kd goes with a tighter complex. Compound `NC(=O)c1ccc[n+]([C@@H]2O[C@H](COP(=O)(O)OP(=O)(O)OC[C@H]3O[C@@H](n4cnc5c(N)ncnc54)[C@H](O)[C@@H]3O)[C@@H](O)[C@H]2O)c1` [NAD^+] came in with a Kd of 123 µM.

These data come from PMC10810742 (The Journal of Biological Chemistry, 2023).
